# Measurements reported in patent US8871463B2, “Method for screening a glutamate release inhibitor in an astrocyte” (Korea Institute of Science and Technology, priority 2012, dated 2014).
# “Also recorded” adds a separate entry of the source.
# Tests used:
# [1] = tested on: primary cultured astrocyte; format: cell-based, mouse
# GluR1-L497Y = GluR1-L497Y (Homo sapiens, UniProt P42261, L497Y); format: cell-based
# Best1 channel [2] = target: Best1 channel (Mus musculus, UniProt O88870); format: cell-based
# Best1 channel [3] = target: T1, Best1 channel (Mus musculus, UniProt O88870); settings: intracellular Ca2+; read-out: EC50 of activation of Best1 channel; cited from earlier work
# T1 sequence (O88870 1-551): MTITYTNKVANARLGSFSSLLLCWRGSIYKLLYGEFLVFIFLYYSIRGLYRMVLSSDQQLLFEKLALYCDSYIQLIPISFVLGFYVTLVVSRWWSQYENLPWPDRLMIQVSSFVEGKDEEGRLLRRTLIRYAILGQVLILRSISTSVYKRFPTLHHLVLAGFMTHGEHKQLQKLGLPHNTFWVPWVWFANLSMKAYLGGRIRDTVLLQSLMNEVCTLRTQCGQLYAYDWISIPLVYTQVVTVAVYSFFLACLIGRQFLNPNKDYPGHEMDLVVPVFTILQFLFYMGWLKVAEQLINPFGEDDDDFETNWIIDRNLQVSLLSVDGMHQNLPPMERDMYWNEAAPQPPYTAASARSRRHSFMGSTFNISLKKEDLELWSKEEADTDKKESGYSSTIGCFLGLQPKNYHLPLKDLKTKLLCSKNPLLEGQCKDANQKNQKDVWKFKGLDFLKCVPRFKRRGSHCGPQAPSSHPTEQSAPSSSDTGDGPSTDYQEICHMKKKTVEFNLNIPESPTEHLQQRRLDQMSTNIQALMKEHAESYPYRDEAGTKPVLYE
# mouse TREK-1 = target: T2, mouse TREK-1 (Mus musculus, UniProt P97438); test: TREK-1-mediated whole-cell current in COS-7 cells; format: cell-based; settings: COS-7 cell expressing TREK-1; voltage ramp
# T2 construct: expressed in transfected cells; host or cells: COS-7
# T2 sequence (P97438 1-426): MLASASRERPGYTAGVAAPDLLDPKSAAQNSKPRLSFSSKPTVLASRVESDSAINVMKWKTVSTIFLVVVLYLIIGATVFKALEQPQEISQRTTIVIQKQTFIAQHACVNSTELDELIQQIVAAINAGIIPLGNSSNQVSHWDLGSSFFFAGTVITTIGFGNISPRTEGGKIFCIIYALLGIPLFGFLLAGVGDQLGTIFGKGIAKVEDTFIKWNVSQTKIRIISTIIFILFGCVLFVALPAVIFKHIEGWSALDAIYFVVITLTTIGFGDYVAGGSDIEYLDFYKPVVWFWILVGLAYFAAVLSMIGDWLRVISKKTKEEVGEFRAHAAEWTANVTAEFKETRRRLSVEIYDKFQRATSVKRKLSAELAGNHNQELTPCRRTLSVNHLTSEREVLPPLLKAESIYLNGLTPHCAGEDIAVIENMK
# Description: (§1) Current-voltage (I-V) curves were recorded from COS-7 expressing TREK-1. I-V curves were established by applying 1000-ms-duration voltage ramps from +70 to −100 mV. Data were acquired by an Axopatch 200A amplifier controlled by Clampex 9.2 via Digidata 1322A data acquisition system (Molecular Devices). Internal solution contained the following (in mM: 150 KCl, 5 EGTA, 10 HEPES, 0.5 CaCl2, 1 MgCl2, pH 7.3, 280 osm). Bath solution contains the following (in mM: 150 NaCl, 10 HEPES, 3 KCl, 2 CaCl2, 2MgCl2, and 5.5 glucose, pH 7.3). The pipette solution for observing Ca^2+ activated Cl^− current (Best1 channel current) whole-cell patch clamp in astrocytes contained the following (in mM: 135 NMDG-Cl, 5 MgCl2, 5 (Ca^2+)-EGTA-N-methyl-D-glucamine (NMDG), 10 HEPES, and 10 glucose, pH 7.3, adjusted with NMDG). We used Ca^2+-free intracellular solution composed of the following (in mM: 135 NMDG-Cl, 5 EGTA-NMDG, 2 MgCl2, 8 HEPES, and 10 sucrose, pH 7.3, adjusted with NMDG). I-V curves were established by applying 1000-ms-duration voltage ramps from +100 to −100 mV.
# astrocyte = format: cell-based, mouse
# TREK-1 [4] = test: Two-cell sniffer patch: Gβγ-induced glutamate release from astrocyte; format: cell-based, mouse; settings: 6.09 nM Gβγ, 5 mM glutamate in pipette; peptides 100 μM
# Description: On the day of sniffer-patch, cultured astrocytes (HEK cells added) were transferred to a microscope stage for imaging. External solution contained (in mM): 150 NaCl, 10 Hepes, 3 KCl, 2 CaCl2, 2 MgCl2, 5.5 glucose, pH adjusted to pH 7.3 and osmolarity to 325 mOsmol kg* Rupture current were recorded from astrocyte under voltage (Vh=−70 mV) using Multiclamp 700B amplifier (Molecular Devices), acquired with pClamp 9.2. Recording electrodes (4-7MΩ) were filled with (mM): 5 glutamate, 135 CsCl, 0.5 CaCl2, 10 Hepes, 4 Mg-ATP, 0.3 Na3-GTP, 10 BAPTA and 6.09 nM Gβγ (pH adjusted to 7.3 with CsOH and osmolarity adjusted to 290-310 mOsm/kg with sucrose). In the case of gene silencing, transfection method is the same as simultaneous recording for sniffer patch. In competition assay, 100 μM N1-N4 synthesized peptides were added to pipette for recording astrocyte. GluR1LY-mediated currents were recorded from HEK cells expressing GluR1-L497Y under voltage clamp (Vh=−70 mV) using Multiclamp 700B amplifier (Molecular Devices), acquired with pClamp 9.2. Recording electrodes (4-7MΩ) were filled with (mM): 110 Cs-Gluconate, 30 CsCl, 0.5 CaCl2, 10 Hepes, 4 Mg-ATP, 0.3 Na3-GTP and 10 BAPTA (pH adjusted to 7.3 with CsOH and osmolarity adjusted to 290-310 mOsm/kg with sucrose). After rupture on the side of HEK cell, GluR1-L497Y-meidated full activation was induced by the treatment of 1 mM glutamate. And then Gβγ on the side of astrocyte was injected with the rupture after 10 min later. This rupture induced both inward current on both recording between astrocyte and HEK cell expressing GluR1-L497Y.
# GNG4 = target: T3, GNG4 (Homo sapiens, UniProt P50150); test: Yeast two hybrid interaction of TREK-1 N-terminal segments with GNG4; format: binding
# T3 construct: expressed in transfected cells; host or cells: yeast strain AH109
# T3 sequence (P50150 1-75): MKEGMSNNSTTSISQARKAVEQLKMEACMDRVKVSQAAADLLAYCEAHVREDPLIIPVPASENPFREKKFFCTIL
# Text: The TREK-1-N 1-4 were ligated into pGBKT7 encoding for the GAL4 DNA binding domain (BD) and the gamma 4 was cloned into pGADT7 encoding for the activation domain (AD). To assess the protein-protein interaction between TREK-1-N and gamma 4, both BD/TREK-1-N and AD/gamma 4 were co-transformed into the yeast strain AH109. AH109 is unable to synthesize histidine. However, interaction between TREK1-N and gamma 4 enables the yeast to make the His3 enzyme, thereby permitting histidine biosynthesis and growth on His minimal medium.
# TREK-1 [5] = test: Gβγ-induced whole-cell current in cultured astrocytes; format: cell-based, mouse; settings: 6.09 nM Gβγ; for Gβγ-induced whole-cell current: competitive peptide in patch pipette; for Gβγ-induced conductance: 150 [Glu]in, gene silencing
# Description: as §1
# We then asked whether Gβγ can directly open any channels in cultured astrocytes. We performed whole-cell current recording with purified Gβγ in the patch-pipette according to the method of Experimentation 12. The results were shown in FIGS. 3d to 3f, FIG. 3i, and FIGS. 12d to 12f.
# GluR1-L497Y, sequence (P42261 19-906 L497Y limits assumed): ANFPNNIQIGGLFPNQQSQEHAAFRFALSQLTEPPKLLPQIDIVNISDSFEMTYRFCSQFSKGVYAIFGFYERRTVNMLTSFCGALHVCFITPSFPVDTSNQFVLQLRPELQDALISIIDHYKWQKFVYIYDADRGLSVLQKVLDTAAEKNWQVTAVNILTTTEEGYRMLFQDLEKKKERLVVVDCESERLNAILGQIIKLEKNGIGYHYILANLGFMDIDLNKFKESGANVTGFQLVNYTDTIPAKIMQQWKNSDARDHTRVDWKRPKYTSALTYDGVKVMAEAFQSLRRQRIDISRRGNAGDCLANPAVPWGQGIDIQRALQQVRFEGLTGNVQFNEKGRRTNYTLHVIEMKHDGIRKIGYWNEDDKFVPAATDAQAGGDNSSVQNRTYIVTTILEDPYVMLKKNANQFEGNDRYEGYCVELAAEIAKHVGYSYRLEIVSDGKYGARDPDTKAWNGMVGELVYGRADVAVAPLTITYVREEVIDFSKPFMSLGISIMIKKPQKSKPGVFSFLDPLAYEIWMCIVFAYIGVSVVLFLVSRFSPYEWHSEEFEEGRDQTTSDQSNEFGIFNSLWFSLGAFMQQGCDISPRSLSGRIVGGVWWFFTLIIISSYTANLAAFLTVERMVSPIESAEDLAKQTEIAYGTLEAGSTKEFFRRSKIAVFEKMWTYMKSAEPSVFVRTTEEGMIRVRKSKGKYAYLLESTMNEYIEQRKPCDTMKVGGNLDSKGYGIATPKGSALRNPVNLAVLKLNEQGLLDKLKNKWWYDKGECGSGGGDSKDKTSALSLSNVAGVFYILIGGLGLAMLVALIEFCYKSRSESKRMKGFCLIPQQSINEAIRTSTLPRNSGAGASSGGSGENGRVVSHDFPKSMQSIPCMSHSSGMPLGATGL
compound,measurement,setting,value
CO/C1=C\C(C)=C\[C@@H](C)[C@@H](O)[C@@H](C)C/C(C)=C/C=C/[C@H](OC)[C@@H]([C@@H](C)[C@@H](O)[C@H](C)[C@@]2(O)C[C@@H](O)[C@H](C)[C@@H](C(C)C)O2)OC1=O [Bafilomycin A1],fast and slow-modes of TFLLR-induced glutamate release (TFLLR-induced GluR1L497Y-mediated current),[1],significantly reduction; also recorded: significantly reduced; also recorded: appeared to block
same,1 mM glutamate-induced GluR1L497Y-mediated current of sensor cell,GluR1-L497Y,marked reduction
same,GluR1LY-mediated Ca2+ transient evoked by 1 mM glutamate,GluR1-L497Y,reduces
same,surface expression of GluR1-L497Y in the sensor cell,GluR1-L497Y,almost completely eliminated
same,Ca2+-activated anion current,Best1 channel [2],inhibited
[Ca+2] [Ca^2+],EC50,Best1 channel [3],150 nM
"Cc1nc(N=Nc2ccc(S(=O)(=O)[O-])cc2S(=O)(=O)[O-])c(COP(=O)([O-])[O-])c(C=O)c1O.[Na+].[Na+].[Na+].[Na+] [PPADS, pyridoxal phosphate-6-azophenyl-2′,4′-disulfonic acid tetrasodium salt]",fast-mode of TFLLR-induced glutamate release,[1],appeared to block
same,1 mM glutamate-induced GluR1L497Y-mediated current of sensor cell,GluR1-L497Y,non-specific effect
same,TREK-1-mediated current,mouse TREK-1,inhibits
O=C([O-])c1c(Cl)c(Cl)c(Cl)c(Cl)c1-c1c2cc(I)c(=O)c(I)c-2oc2c(I)c([O-])c(I)cc12.[Na+].[Na+] [Rose Bengal],fast and slow-modes of TFLLR-induced glutamate release (TFLLR-induced GluR1L497Y-mediated current),[1],does not inhibit; also recorded: did not have any effect
same,glutamate release in response to mechanical stimulation,astrocyte,inhibited
AAPDLLDPKSA (Competitive peptides N1 of TREK-1),Gβγ-induced current in astrocyte,TREK-1 [4],significantly reduced
same,Gβγ-induced glutamate release (sensor current),TREK-1 [4],significantly reduced
same,interaction with GNG4,GNG4,strongly interacted
same,Gβγ-induced whole-cell current,TREK-1 [5],significantly reduced; also recorded: almost inhibit
AQNSKPRLSFSS (Competitive peptides N2 of TREK-1),interaction with GNG4,GNG4,strongly interacted
same,Gβγ-induced whole-cell current,TREK-1 [5],significantly reduced
DSAINVMKWKT (Competitive peptides N4 of TREK-1),interaction with GNG4,GNG4,strongly interacted
same,Gβγ-induced whole-cell current,TREK-1 [5],significantly reduced
"TREK-1-shRNA: shRNA for mouse TREK-1 targeted at nucleotides 1043 to 1063 (SEQ ID NO: 17), in pSicoR (guide GCGTGGAGATCTACGACAAGT)",Gβγ-induced current in astrocyte,TREK-1 [4],abolished
same,Gβγ-induced glutamate release (sensor current),TREK-1 [4],abolished
same,fast-mode of TFLLR-induced glutamate release,[1],selectively eliminated
same,slow-mode of TFLLR-induced glutamate release,[1],without affecting
same,Gβγ-induced conductance,TREK-1 [5],eliminated
same,Gβγ-induced conductance,TREK-1 [5]; listed as TREK-1 specific shRNA,almost completely removed
